For data set [1], the target named is T1, Aβ42 fibrils (Homo sapiens, UniProt P05067).
T1 construct: commercially available β-amyloid peptide (1-42), human; purchased marck (so in the source) PP69-.025 mg
In words: TEM visualization of Aβ42 aggregation species. The following applies: 10 µM Aβ42, 50 µM TGR63, 48 h. Type of data set: biochemical. As for the experimental part:
To visualize the amyloid fibrils, the 10 µM of Aβ42 peptides were incubated alone, and in combination with 50 µM TGR63 for 48 h and spotted on mica surface and TEM grid to acquire the TEM images. FIG. 4(a) and FIG. 4(b) show the TEM images of Aβ42 aggregation species in the absence and presence of TGR63 respectively.

Data set [2] can be described thus: MALDI mass analysis of blood serum after administration. The class given is in vivo. Particulars: WT mice, 24 h after administration. The protocol:
(§1) Pharmacokinetics of TGR63 in wild-type (WT) mice was performed to assess its in vivo efficacy. The lethal dose 50 (LD50) of TGR63 was determined in WT mice through intraperitoneal (IP) injection following the Organisation for Economic Cooperation and Development (OECD) guidelines. […] FIG. 7A illustrates the calculation of lethal dose 50% (LD50) of TGR63 through intraperitoneal administration and is represented as table of experimental details and the final observation was done on 14th day. FIG. 7B illustrates the mortality (%) plotted against TGR63 concentration and calculation of LD50. Twenty-five WT mice were segregated in five different groups (G1-5, N= 5 per group) and administered with varying doses of TGR63 (1.7, 5.5, 17.5 56.0 and 179.0 mg/kg body weight, respectively) through IP injection and their survival was monitored for 14 days. The serum stability and blood-brain barrier (BBB) crossing ability of TGR63 were assessed through matrix-assisted laser desorption ionization (MALDI) mass spectrometry analysis of blood and brain samples of vehicle and TGR63 treated mice. […] The partition coefficient (P), a valuable physical property was calculated to predict the BBB permeability. […] The calculated positive logP value predicts the possible BBB crossing ability for TGR63. […]

Data set [3] deals with PC12 cells. In words: Rescue of PC12 cells from Aβ42 toxicity (MTT cell viability assay). Particulars: PC12 cells, Aβ42 20 µM + compound 40 µM, 24 h; Aβ42 alone 54%, untreated 100%.
Protocol: A 96-well plate was used to culture the cells (15,000 per well) with RPMI media (10% fetal bovine serum (FBS), 5% horse serum (HS,), and 1% pen-strep (PS)) at 37° C. temperature in a 5% CO2 atmosphere. Then the media was exchanged with low serum (2% FBS) media and monomeric Aβ42 was added in the absence and presence of NMI compounds and incubated for 24 h.
The structure-activity relationship (SAR) of NMI compounds towards rescuing PC12 cells from Aβ toxicity was investigated. […] Each experiment was repeated three times (n = 3), and error bars represent the standard deviation (SD).
An Alzheimer’s disease-like environment was mimicked by exposing the cultured PC12 cells to 20 µM of Aβ42 fibrils, which formed cytotoxic aggregation species in the growth media.
For data set [4], the system named is WT mice. In words: LD50 by intraperitoneal injection (OECD guidelines). Type of data set: in vivo. Particulars: IP injection, survival monitored 14 days. The protocol:
as §1

Data set [5] concerns APP/PS1 and WT mice. In words: Morris water maze (MWM) test. Type of data set: in vivo. As for the experimental part:
The spatial and episodic memory formation under AD conditions were investigated through spatial learning and memory development tasks in MWM test. MWM test was performed in a water pool (radius: 70 cm) and experimental mice were trained four times in a day to find a hidden platform, which was removed in probe trial to assess the spatial memory. The latency time to reach the hidden platform during the training period was recorded to determine spatial learning (FIG. 16H). […] In the probe trial, AD vehicle cohort spent most of the time (~87% of total time) in other quadrants (without platform), while other cohorts (WT vehicle, WT TGR63 and AD TGR63) spent only ~67%, 58% and 66% of total time in without platform quadrants, respectively. The AD vehicle cohort spent minimum time (~13% of total time) in target quadrant (with platform) compared to WT vehicle cohort (~33% of total time). […] Remarkably, AD TGR63 cohort crossed the platform region ~4 times, which is greater than the AD vehicle cohort.

Data set [6] concerns the target α-Syn (Homo sapiens, UniProt P37840). In words: ThT binding assay, α-Syn aggregation inhibition. Type of data set: biochemical. An excerpt: Parkinson’s disease (PD) is a neuronal disorder, mainly affects the motor system. α-Syn is a presynaptic neuronal protein that is linked neuropathologically to PD plays a vital role in the pathogenesis in a number of ways. Self-aggregation of α-Syn to form fibrillar aggregates and these toxic species mediate disruption of cellular homeostasis and cause neuronal death. These toxic aggregates affect various intracellular targets, especially synaptic function. In this context, NMI compounds of the present disclosure were used to study the possible modulation of α-Syn aggregation. The effect of NMI compounds (TGR63 and TGR64) on α-syn (100 µM) aggregation inhibition was studied through ThT binding assay. Experiments were performed at stoichiometric ratios (α-Syn:inhibitor) of 1:1, 1:2, and 1:5 with the fixed concentration of α-Syn at 100 µM.

For orientation: cell viability means the share of living cells, or the viability signal relative to a control.

Some results are limits rather than exact numbers.

T1 sequence (P05067 672-713 limits assumed): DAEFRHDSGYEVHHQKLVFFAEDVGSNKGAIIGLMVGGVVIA

As to `CN(C)c1ccc(C#Cc2ccc3c4c(cccc24)C(=O)N(CC[N+](C)(C)C)C3=O)cc1` [TGR63, 2-(6-((4-(dimethylamino)phenyl)ethynyl)-1,3-dioxo-1H-benzo[de]isoquinolin-2(3H)-yl)-N,N,N-trimethylethan-1-aminium], the “intertwined structure of Aβ42 fibrils (TEM)” value in data set [1] is “disrupted”. For the same compound, the “presence in blood (MALDI)” value in data set [2] is listed as “confirmed the presence of TGR63 in blood after 24 h of administration”. For the same compound, the cell viability in data set [3] is recorded as 80%. Further, in data set [4], the LD50 is given as ~ 157.9 mg/kg body weight. The “exploration in target quadrant relative to AD vehicle cohort” value in data set [5] (AD TGR63 cohort, probe trial) is listed as under 20%. Besides, in data set [5] (AD TGR63 cohort, training days), the “spatial memory formation (latency to hidden platform during training)” value is listed as “significant improvement in spatial memory formation compared to AD vehicle cohort”. In data set [5] (AD TGR63 cohort, AD vehicle ~1 time, WT vehicle ~4 times), the “platform region crossings, probe trial” value is recorded as ~ 4 times. Also, the “exploration in target quadrant, probe trial” value is reported as ~ 34 % of total time in data set [5] (AD TGR63 cohort, AD vehicle ~13%) and < 35 % of total time in data set [5] (WT TGR63 cohort, WT vehicle ~33%). For the same compound, the “time in without platform quadrants, probe trial” value was ~66 % of total time in data set [5] (AD TGR63 cohort, AD vehicle ~87%) and ~58 % of total time in data set [5] (WT TGR63 cohort, WT vehicle ~67%). The “decrease in the formation of α-Syn aggregates” value in data set [6] (α-Syn:inhibitor 1:1, α-Syn 100 µM) was ~ 54%. Moreover, the “α-Syn aggregation decreased to” value in data set [6] (α-Syn:inhibitor 1:2, α-Syn 100 µM) turned out to be 65%; in data set [6] (α-Syn:inhibitor 1:5, α-Syn 100 µM), 93%.

For the origin of these results see patent publication US20230331679A1, “NAPHTHALENE MONOIMIDE COMPOUNDS AND METHODS THEREOF” (JAWAHARLAL NEHRU CENTRE FOR ADVANCED SCIENTIFIC RESEARCH, priority 2020, published 2023).
